{
  "source": "patent US6316410A",
  "about": "“Parathyroid hormone analogues for the treatment of osteoporosis” (National Research Council of Canada, priority 1999, dated 2001)",
  "key": {"[1]": {"test_system": "adenylyl cyclase of ROS 17/2 cells", "format": "cell-based, rat", "from_the_text": "Adenylyl cyclase activities of 4- to 5-day cultures of ROS 17/2 cells in 24-well plates were estimated from the rate of formation of [^3 H]-cAMF from the cellular ATP pool, which had been labelled with [^3 H]-adenine before exposure to hPTH or its analogues in accordance with Jouishomme, H. Whitfield, J. F.; Gagnon, L.; Maclean, S.; Isaacs, R.; Chakravarthy, B.; Durkin, J.; Neugebauer, W.; Willick, G.; Rixon, R. H. Further Definition of the Protein Kinase C Activation Domain of the Parathyroid Hormone. J. Bone Miner. Res. 1994, 9, 943-949."}, "ovariectomized rat model": {"test_system": "ovariectomized rat model", "conditions": "ovariectomized rats, literature; cited from earlier work"}, "[2]": {"test_system": "ovariectomized (OVX) rats", "test": "Growth of trabeculae in the distal femurs of ovariectomized (OVX) rats, injections week 9 to 15 after OVX", "format": "in vivo", "conditions": "5 nmoles/100 g of body weight s.c. daily, FIG. 8, in words", "from_the_text": "Rats were OVXed (OVX) or sham-OVXed (sham) and given daily subcutaneous injections of vehicle between the end of the 9th week and the end of the 15th week after OVX. Injection quantities were 5 nmoles/100 g of body weight. OVXed rats received daily subcutaneous injections of: vehicle (OVX), hPTH(1-31)NH2, 5 nmol (linear), [Leu^27 ]cyclo(Glu^22 -Lys^26)hPTH(1-28)NH2, 5 nmol (cyclic), or [Glu^17,Leu^27]cyclo(Lys^13 -Glu^17,Glu^22 Lys^26)hPTH(1-31)NH2, 5nmol(double cyclic). The femurs were demineralized and stained with Sanderson's rapid bone stain. […] This improvement is not correlated with their relative AC-stimulating activities, but likely results from greater stability to proteolytic attack and greater ability to be transported from the site of injection."}, "[3]": {"conditions": "ROS 17/2 cells, concentration required to obtain half-maximal activity"}},
  "note": "“Also recorded” adds a separate entry of the source. Where two headings read alike, the source gives them in different places. Positions of bridges follow the written chain, without caps; N, C: chain ends. No end group written: not given here.",
  "data": [
    {"molecule": "SVSEIQLMHNLGKHLNSMERVEWLRKKL-NH2 [hPTH(1-28)NH2, reference compound]", "values": [
      {"measurement": "AC-Stimulation (ED50%, nM)", "setting": "[1]", "result": 24, "unit": "nM"}
    ]},
    {"molecule": "SVSEIQLMHNLGKHLNSMERVEWLRKKLQ-NH2 [hPTH(1-29)NH2, reference compound]", "values": [
      {"measurement": "AC-Stimulation (ED50%, nM)", "setting": "[1]", "result": 24, "unit": "nM"}
    ]},
    {"molecule": "Ser Val Ser Glu Ile Gln Leu Met His Asn Leu Gly Lys His Leu Asn Ser Met Glu Arg Val Glu Trp Leu Arg Lys Lys Leu Gin Asp Val-NH2 (SVSEIQLMHNLGKHLNSMERVEWLRKKLQDV-NH2) [hPTH-(1-31)-NH2, linear human parathyroid hormone fragment 1-31 amide]", "values": [
      {"measurement": "anabolic activity / restoration of bone loss", "setting": "ovariectomized rat model", "result": "fully active in the restoration of bone loss"}
    ]},
    {"molecule": "[Glu^17, Leu^27 ]cyclo(Lys^13 -Glu^17, Glu^22 -Lys^26)-hPTH-(1-31)-NH2 (SVSEIQLMHNLGKHLNEMERVEWLRKLLQDV-NH2; lactam 13-17, 22-26; N-terminus assumed; SMILES CC[C@H](C)[C@H](NC(=O)[C@H](CCC(=O)O)NC(=O)[C@H](CO)NC(=O)[C@@H](NC(=O)[C@@H](N)CO)C(C)C)C(=O)N[C@@H](CCC(N)=O)C(=O)N[C@@H](CC(C)C)C(=O)N[C@@H](CCSC)C(=O)N[C@@H](Cc1c[nH]cn1)C(=O)N[C@@H](CC(N)=O)C(=O)N[C@@H](CC(C)C)C(=O)NCC(=O)N[C@H]1CCCCNC(=O)CC[C@@H](C(=O)N[C@@H](CCSC)C(=O)N[C@@H](CCC(=O)O)C(=O)N[C@@H](CCCNC(=N)N)C(=O)N[C@H](C(=O)N[C@H]2CCC(=O)NCCCC[C@@H](C(=O)N[C@@H](CC(C)C)C(=O)N[C@@H](CC(C)C)C(=O)N[C@@H](CCC(N)=O)C(=O)N[C@@H](CC(=O)O)C(=O)N[C@H](C(N)=O)C(C)C)NC(=O)[C@H](CCCNC(=N)N)NC(=O)[C@H](CC(C)C)NC(=O)[C@H](Cc3c[nH]c4ccccc34)NC2=O)C(C)C)NC(=O)[C@H](CC(N)=O)NC(=O)[C@H](CC(C)C)NC(=O)[C@H](Cc2c[nH]cn2)NC1=O) [double cyclic (13-17 and 22-26 lactams) hPTH 1-31 amide analogue]", "values": [
      {"measurement": "AC-Stimulation (ED50%, nM)", "setting": "[1]; [3]", "result": 13.2, "unit": "nM"},
      {"measurement": "increasing the thickness of the remaining trabeculae", "setting": "[2]", "result": "better than its monocyclic counterpart; also recorded: significantly better than the linear molecule"}
    ]},
    {"molecule": "[Leu^27 ]cyclo(Glu^22 -Lys^26)-hPTH-(1-28)-NH2 (SVSEIQLMHNLGKHLNSMERVEWLRKLL-NH2; lactam 22-26; N-terminus assumed; SMILES CC[C@H](C)[C@H](NC(=O)[C@H](CCC(=O)O)NC(=O)[C@H](CO)NC(=O)[C@@H](NC(=O)[C@@H](N)CO)C(C)C)C(=O)N[C@@H](CCC(N)=O)C(=O)N[C@@H](CC(C)C)C(=O)N[C@@H](CCSC)C(=O)N[C@@H](Cc1c[nH]cn1)C(=O)N[C@@H](CC(N)=O)C(=O)N[C@@H](CC(C)C)C(=O)NCC(=O)N[C@@H](CCCCN)C(=O)N[C@@H](Cc1c[nH]cn1)C(=O)N[C@@H](CC(C)C)C(=O)N[C@@H](CC(N)=O)C(=O)N[C@@H](CO)C(=O)N[C@@H](CCSC)C(=O)N[C@@H](CCC(=O)O)C(=O)N[C@@H](CCCNC(=N)N)C(=O)N[C@H](C(=O)N[C@H]1CCC(=O)NCCCC[C@@H](C(=O)N[C@@H](CC(C)C)C(=O)N[C@@H](CC(C)C)C(N)=O)NC(=O)[C@H](CCCNC(=N)N)NC(=O)[C@H](CC(C)C)NC(=O)[C@H](Cc2c[nH]c3ccccc23)NC1=O)C(C)C) [[Leu^27]c(Glu^22 -Lys^26)hPTH(1-28)NH2, 22-26 lactam cyclic analogue of human parathyroid hormone 1-28 amide with Leu27]", "values": [
      {"measurement": "AC-Stimulation (ED50%, nM)", "setting": "[1]; [3]", "result": 9.6, "unit": "nM"}
    ]},
    {"molecule": "[Leu^27 ]cyclo(Glu^22 -Lys^26)-hPTH-(1-29)-NH2 (SVSEIQLMHNLGKHLNSMERVEWLRKLLQ-NH2; lactam 22-26; N-terminus assumed; SMILES CC[C@H](C)[C@H](NC(=O)[C@H](CCC(=O)O)NC(=O)[C@H](CO)NC(=O)[C@@H](NC(=O)[C@@H](N)CO)C(C)C)C(=O)N[C@@H](CCC(N)=O)C(=O)N[C@@H](CC(C)C)C(=O)N[C@@H](CCSC)C(=O)N[C@@H](Cc1c[nH]cn1)C(=O)N[C@@H](CC(N)=O)C(=O)N[C@@H](CC(C)C)C(=O)NCC(=O)N[C@@H](CCCCN)C(=O)N[C@@H](Cc1c[nH]cn1)C(=O)N[C@@H](CC(C)C)C(=O)N[C@@H](CC(N)=O)C(=O)N[C@@H](CO)C(=O)N[C@@H](CCSC)C(=O)N[C@@H](CCC(=O)O)C(=O)N[C@@H](CCCNC(=N)N)C(=O)N[C@H](C(=O)N[C@H]1CCC(=O)NCCCC[C@@H](C(=O)N[C@@H](CC(C)C)C(=O)N[C@@H](CC(C)C)C(=O)N[C@@H](CCC(N)=O)C(N)=O)NC(=O)[C@H](CCCNC(=N)N)NC(=O)[C@H](CC(C)C)NC(=O)[C@H](Cc2c[nH]c3ccccc23)NC1=O)C(C)C) [[Leu^27]c(Glu^22 -Lys^26)hPTH(1-29)NH2, 22-26 lactam cyclic analogue of human parathyroid hormone 1-29 amide with Leu27]", "values": [
      {"measurement": "AC-Stimulation (ED50%, nM)", "setting": "[1]; [3]", "result": 8.4, "unit": "nM"}
    ]},
    {"molecule": "hPTH(1-30)NH2 (SVSEIQLMHNLGKHLNSMERVEWLRKKLQD-NH2; UniProt P01270 32-61, looked up, fragment) [linear human parathyroid hormone fragment 1-30 amide]", "values": [
      {"measurement": "anabolic activity / restoration of bone loss", "setting": "ovariectomized rat model", "result": "only with much higher doses than used with the (1-31) analogue"}
    ]},
    {"molecule": "SVSEIQLMHNLGKHLNEMERVEWLRKLLQDV-NH2 (lactam 13-17, 22-26; N-terminus assumed; SMILES CC[C@H](C)[C@H](NC(=O)[C@H](CCC(=O)O)NC(=O)[C@H](CO)NC(=O)[C@@H](NC(=O)[C@@H](N)CO)C(C)C)C(=O)N[C@@H](CCC(N)=O)C(=O)N[C@@H](CC(C)C)C(=O)N[C@@H](CCSC)C(=O)N[C@@H](Cc1c[nH]cn1)C(=O)N[C@@H](CC(N)=O)C(=O)N[C@@H](CC(C)C)C(=O)NCC(=O)N[C@H]1CCCCNC(=O)CC[C@@H](C(=O)N[C@@H](CCSC)C(=O)N[C@@H](CCC(=O)O)C(=O)N[C@@H](CCCNC(=N)N)C(=O)N[C@H](C(=O)N[C@H]2CCC(=O)NCCCC[C@@H](C(=O)N[C@@H](CC(C)C)C(=O)N[C@@H](CC(C)C)C(=O)N[C@@H](CCC(N)=O)C(=O)N[C@@H](CC(=O)O)C(=O)N[C@H](C(N)=O)C(C)C)NC(=O)[C@H](CCCNC(=N)N)NC(=O)[C@H](CC(C)C)NC(=O)[C@H](Cc3c[nH]c4ccccc34)NC2=O)C(C)C)NC(=O)[C@H](CC(N)=O)NC(=O)[C@H](CC(C)C)NC(=O)[C@H](Cc2c[nH]cn2)NC1=O)", "note": "[[Glu^17, Leu^27]cyclo(Lys^13-Glu^17, Glu^22-Lys^26)-hPTH-(1-31)-NH2]", "values": [
      {"measurement": "AC-Stimulation (ED50%, nM)", "setting": "PTH receptor", "result": 13.2, "unit": "nM"}
    ]},
    {"molecule": "SVSEIQLMHNLGKHLNSMERVEWLRKKLQ-NH2", "note": "[hPTH(1-29)NH2]", "values": [
      {"measurement": "AC-Stimulation (ED50%, nM)", "setting": "PTH receptor", "result": 24, "unit": "nM"}
    ]},
    {"molecule": "SVSEIQLMHNLGKHLNSMERVEWLRKLL-NH2 (lactam 22-26; N-terminus assumed; SMILES CC[C@H](C)[C@H](NC(=O)[C@H](CCC(=O)O)NC(=O)[C@H](CO)NC(=O)[C@@H](NC(=O)[C@@H](N)CO)C(C)C)C(=O)N[C@@H](CCC(N)=O)C(=O)N[C@@H](CC(C)C)C(=O)N[C@@H](CCSC)C(=O)N[C@@H](Cc1c[nH]cn1)C(=O)N[C@@H](CC(N)=O)C(=O)N[C@@H](CC(C)C)C(=O)NCC(=O)N[C@@H](CCCCN)C(=O)N[C@@H](Cc1c[nH]cn1)C(=O)N[C@@H](CC(C)C)C(=O)N[C@@H](CC(N)=O)C(=O)N[C@@H](CO)C(=O)N[C@@H](CCSC)C(=O)N[C@@H](CCC(=O)O)C(=O)N[C@@H](CCCNC(=N)N)C(=O)N[C@H](C(=O)N[C@H]1CCC(=O)NCCCC[C@@H](C(=O)N[C@@H](CC(C)C)C(=O)N[C@@H](CC(C)C)C(N)=O)NC(=O)[C@H](CCCNC(=N)N)NC(=O)[C@H](CC(C)C)NC(=O)[C@H](Cc2c[nH]c3ccccc23)NC1=O)C(C)C)", "note": "[[Leu^27]cyclo(Glu^22-Lys^26)-hPTH-(1-28)-NH2]", "values": [
      {"measurement": "AC-Stimulation (ED50%, nM)", "setting": "PTH receptor", "result": 9.6, "unit": "nM"}
    ]},
    {"molecule": "SVSEIQLMHNLGKHLNSMERVEWLRKKL-NH2", "note": "[hPTH(1-28)NH2]", "values": [
      {"measurement": "AC-Stimulation (ED50%, nM)", "setting": "PTH receptor", "result": 24, "unit": "nM"}
    ]},
    {"molecule": "SVSEIQLMHNLGKHLNSMERVEWLRKLLQ-NH2 (lactam 22-26; N-terminus assumed; SMILES CC[C@H](C)[C@H](NC(=O)[C@H](CCC(=O)O)NC(=O)[C@H](CO)NC(=O)[C@@H](NC(=O)[C@@H](N)CO)C(C)C)C(=O)N[C@@H](CCC(N)=O)C(=O)N[C@@H](CC(C)C)C(=O)N[C@@H](CCSC)C(=O)N[C@@H](Cc1c[nH]cn1)C(=O)N[C@@H](CC(N)=O)C(=O)N[C@@H](CC(C)C)C(=O)NCC(=O)N[C@@H](CCCCN)C(=O)N[C@@H](Cc1c[nH]cn1)C(=O)N[C@@H](CC(C)C)C(=O)N[C@@H](CC(N)=O)C(=O)N[C@@H](CO)C(=O)N[C@@H](CCSC)C(=O)N[C@@H](CCC(=O)O)C(=O)N[C@@H](CCCNC(=N)N)C(=O)N[C@H](C(=O)N[C@H]1CCC(=O)NCCCC[C@@H](C(=O)N[C@@H](CC(C)C)C(=O)N[C@@H](CC(C)C)C(=O)N[C@@H](CCC(N)=O)C(N)=O)NC(=O)[C@H](CCCNC(=N)N)NC(=O)[C@H](CC(C)C)NC(=O)[C@H](Cc2c[nH]c3ccccc23)NC1=O)C(C)C)", "note": "[[Leu^27]cyclo(Glu^22-Lys^26)-hPTH-(1-29)-NH2]", "values": [
      {"measurement": "AC-Stimulation (ED50%, nM)", "setting": "PTH receptor", "result": 8.4, "unit": "nM"}
    ]}
  ]
}
